The inhibition is the share of the control response that was lost under treatment. A high value points to a response far below the control. The term % Inhibition denotes the drop in the measured response relative to a control, in per cent. Higher therefore signals a strong effect. A word on the EC50: it is the concentration at which the effect is half-maximal.

One series deals with T1, hERG (Homo sapiens, UniProt Q12809).
T1 construct: Ricerca (contract laboratory that ran the panel)
The series can be described thus: Radioligand displacement (Ricerca). Format: binding. A general note: In a radioligand displacement assay an active substance lowers the binding of a labelled ligand.

The next series relates to Phorbol ester. The series can be described thus: Radioligand displacement (Ricerca). The class given is binding, mouse. As to conditions: 10 μM.
The next series concerns the target T2, Estrogen ERα (Homo sapiens, UniProt P03372).
T2 construct: Ricerca
Briefly: Radioligand displacement (Ricerca). The class given is binding.

A further series has as its target T3, GIRK1/2 (Homo sapiens, UniProt P48051+P48549).
T3 sequence (P48549 1-501): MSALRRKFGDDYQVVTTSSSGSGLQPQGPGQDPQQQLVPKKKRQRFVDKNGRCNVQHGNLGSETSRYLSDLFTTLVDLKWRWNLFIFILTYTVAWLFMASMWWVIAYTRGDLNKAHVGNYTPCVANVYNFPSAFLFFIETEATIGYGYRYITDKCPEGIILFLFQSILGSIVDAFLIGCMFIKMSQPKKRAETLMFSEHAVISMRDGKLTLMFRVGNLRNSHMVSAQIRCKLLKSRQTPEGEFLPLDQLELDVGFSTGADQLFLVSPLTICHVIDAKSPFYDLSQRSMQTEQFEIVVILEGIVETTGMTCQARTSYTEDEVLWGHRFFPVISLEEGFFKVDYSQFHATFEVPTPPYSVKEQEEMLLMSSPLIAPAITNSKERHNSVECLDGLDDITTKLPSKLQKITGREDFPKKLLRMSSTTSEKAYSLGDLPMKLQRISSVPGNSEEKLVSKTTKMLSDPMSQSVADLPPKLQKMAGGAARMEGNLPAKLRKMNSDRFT
T3 sequence (P48051 1-423): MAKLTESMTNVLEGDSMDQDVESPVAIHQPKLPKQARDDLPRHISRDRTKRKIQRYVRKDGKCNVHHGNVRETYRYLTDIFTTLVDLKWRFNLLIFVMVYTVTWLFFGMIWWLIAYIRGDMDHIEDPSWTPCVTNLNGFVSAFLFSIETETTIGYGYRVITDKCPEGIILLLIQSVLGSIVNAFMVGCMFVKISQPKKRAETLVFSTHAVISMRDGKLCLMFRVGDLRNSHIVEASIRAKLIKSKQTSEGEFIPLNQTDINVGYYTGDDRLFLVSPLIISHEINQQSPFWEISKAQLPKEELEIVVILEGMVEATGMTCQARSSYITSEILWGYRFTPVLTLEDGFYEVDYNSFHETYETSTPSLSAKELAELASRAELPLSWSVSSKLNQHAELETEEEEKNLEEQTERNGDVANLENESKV
Briefly: Thallium flux assay, HEK-293 cells expressing GIRK1/2. The note with it: cell line GIRK1-2; average ± SEM; read-out: EC50 Thallium Flux. Further details: host or cells: HEK-293. Format: cell-based. From the text:
(§1) Cell Line Construction and Cell Culture. HEK-293 cells co-expressing human GIRK1/2 and rat mGlu8 were generated as previously described (Niswender et al., 2008). A HEK-293 cell line (ATCC, Manassas, Va.) expressing human GIRK1 and human GIRK2 was constructed by transfecting HEK-293 cells with GIRK1 and GIRK2 (Origene, Rockville, Md.) cloned into the pBudCE4.1 vector (Life Technologies, Carlsbad, Calif.) using FuGene 6 (Promega, Madison, Wis.) transfection reagent. Unless otherwise noted, other ion channel-expressing cells were prepared by transfecting HEK-293 cells with individual or combinations of subunits: GIRK1, pCMV6-A-BSD; GIRK2, pCMV6-A-puro; GIRK3, pCMV6-A-hygro; GIRK4, pCMV6-A-AC; Kv7.4, pIRESneo3. The Kir2.1 and hERG-expressing cell lines were made by transfecting T-REx-293 cells (Life Technologies, Carlsbad, Calif.) with Kir2.1 and Kv11.1, respectively, cloned into pcDNA5TO. Monoclonal cell lines were produced by limiting-dilution cloning of antibiotic-resistant cells and functional selection using the thallium flux assay described below. Unless otherwise noted, cells were maintained in Minimal Essential Medium, Alpha Medium (Mediatech, Manassas, Va.) supplemented with 10% fetal bovine serum (Sigma-Aldrich, Saint Louis, Mo.) and GlutaGro (Mediatech, Manassas, Va.), referred to henceforth as cell culture medium. […]

Another series concerns the target T4, Kv7.4 (Homo sapiens, UniProt P56696).
T4 construct: expressed in transfected cells; host or cells: HEK-293
The series can be described thus: Thallium flux assay, Kv7.4-expressing cells. The class given is cell-based.
Text: as §1

For another series, the system named is Purinergic P2X. Briefly: Radioligand displacement (Ricerca). The note with it: 10 μM. The class given is binding, rabbit.
Another series has as its system Rolipram (PDE4). Briefly: Radioligand displacement (Ricerca). The class given is binding, human. The note with it: 10 μM.
Another series has as its target T5, Histamine H3 (Homo sapiens, UniProt Q9Y5N1).
T5 construct: Ricerca (contract laboratory that ran the panel)
The series can be described thus: Radioligand displacement (Ricerca). The class given is binding.

T1 sequence (Q12809 whole entry): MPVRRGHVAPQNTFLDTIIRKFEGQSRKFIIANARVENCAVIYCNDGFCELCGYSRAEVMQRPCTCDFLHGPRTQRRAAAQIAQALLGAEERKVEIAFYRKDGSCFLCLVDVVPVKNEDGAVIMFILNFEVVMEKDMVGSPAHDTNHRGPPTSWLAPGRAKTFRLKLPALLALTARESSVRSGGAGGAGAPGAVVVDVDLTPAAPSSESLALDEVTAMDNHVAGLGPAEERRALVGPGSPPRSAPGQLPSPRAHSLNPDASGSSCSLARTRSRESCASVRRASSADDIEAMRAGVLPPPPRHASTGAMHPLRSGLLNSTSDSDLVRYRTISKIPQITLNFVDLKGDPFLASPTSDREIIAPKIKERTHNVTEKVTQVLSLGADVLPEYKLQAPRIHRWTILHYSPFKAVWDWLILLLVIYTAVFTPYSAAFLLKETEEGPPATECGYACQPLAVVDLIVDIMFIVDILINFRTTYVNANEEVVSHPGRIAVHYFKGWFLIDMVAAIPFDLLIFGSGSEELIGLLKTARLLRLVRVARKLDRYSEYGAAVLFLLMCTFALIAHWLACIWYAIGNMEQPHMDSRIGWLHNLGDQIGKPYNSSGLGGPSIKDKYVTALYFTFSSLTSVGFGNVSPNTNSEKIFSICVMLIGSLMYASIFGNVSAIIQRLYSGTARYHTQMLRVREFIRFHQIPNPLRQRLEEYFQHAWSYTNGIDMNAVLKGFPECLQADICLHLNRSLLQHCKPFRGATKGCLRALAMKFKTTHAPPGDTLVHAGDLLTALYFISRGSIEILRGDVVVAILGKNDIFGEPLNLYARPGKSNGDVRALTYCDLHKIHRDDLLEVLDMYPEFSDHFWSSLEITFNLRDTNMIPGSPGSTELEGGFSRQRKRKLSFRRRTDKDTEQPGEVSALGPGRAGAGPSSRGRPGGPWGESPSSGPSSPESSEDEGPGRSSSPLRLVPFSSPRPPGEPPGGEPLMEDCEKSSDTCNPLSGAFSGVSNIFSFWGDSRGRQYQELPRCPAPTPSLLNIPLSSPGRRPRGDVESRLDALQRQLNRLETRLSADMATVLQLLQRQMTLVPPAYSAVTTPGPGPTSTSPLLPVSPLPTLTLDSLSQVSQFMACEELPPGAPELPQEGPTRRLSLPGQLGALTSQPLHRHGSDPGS
T5 sequence (Q9Y5N1 whole entry): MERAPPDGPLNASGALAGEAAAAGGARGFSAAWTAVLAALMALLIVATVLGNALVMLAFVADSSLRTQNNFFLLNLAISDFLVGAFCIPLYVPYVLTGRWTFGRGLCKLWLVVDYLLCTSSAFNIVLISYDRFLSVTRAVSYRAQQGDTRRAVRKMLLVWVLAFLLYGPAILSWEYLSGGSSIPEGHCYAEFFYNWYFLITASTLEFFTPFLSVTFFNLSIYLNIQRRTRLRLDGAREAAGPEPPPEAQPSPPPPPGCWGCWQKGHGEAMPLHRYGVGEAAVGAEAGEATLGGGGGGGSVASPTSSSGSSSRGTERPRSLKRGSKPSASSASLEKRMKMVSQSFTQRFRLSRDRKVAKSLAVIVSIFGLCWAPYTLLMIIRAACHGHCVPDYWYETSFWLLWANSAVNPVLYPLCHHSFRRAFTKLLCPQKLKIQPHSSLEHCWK
T2 sequence (P03372 whole entry): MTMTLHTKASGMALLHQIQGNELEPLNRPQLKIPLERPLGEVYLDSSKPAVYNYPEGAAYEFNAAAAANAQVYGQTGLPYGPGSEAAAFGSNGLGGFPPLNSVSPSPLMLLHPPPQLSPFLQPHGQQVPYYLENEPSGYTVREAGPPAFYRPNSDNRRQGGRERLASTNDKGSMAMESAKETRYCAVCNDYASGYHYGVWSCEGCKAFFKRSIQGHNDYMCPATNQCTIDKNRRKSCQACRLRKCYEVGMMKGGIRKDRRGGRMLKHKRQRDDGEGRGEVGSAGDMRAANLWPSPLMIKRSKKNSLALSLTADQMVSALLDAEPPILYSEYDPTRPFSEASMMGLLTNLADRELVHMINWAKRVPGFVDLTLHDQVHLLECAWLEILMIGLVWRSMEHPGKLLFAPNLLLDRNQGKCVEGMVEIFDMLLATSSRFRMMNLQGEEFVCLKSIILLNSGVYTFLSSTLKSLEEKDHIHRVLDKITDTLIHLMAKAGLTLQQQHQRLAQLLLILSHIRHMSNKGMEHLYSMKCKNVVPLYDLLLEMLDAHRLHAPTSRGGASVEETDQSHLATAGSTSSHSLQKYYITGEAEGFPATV

In the case of `Cc1cc(NC(=O)Nc2ccc(F)c(F)c2)n(-c2ccccc2)n1` [VU0456810, 1-(3,4-difluorophenyl)-3-(3-methyl-1-phenyl-1H-pyrazol-5-yl)urea], the inhibition at 10 µM was determined as 10% at hERG, 1% at Estrogen ERα and 1% on Histamine H3. Further, the “% Inhibition” value is listed as 1% with Phorbol ester, 16% in the series with Purinergic P2X and 11% with Rolipram (PDE4). Also, the EC50 on GIRK1/2 is 162 ± 89 nM. Also, the Potency entry on Kv7.4 is on record as “Inactive”.
